These results are taken from patent US20100168102A9, “Amide Derivatives as Kinase Inhibitors” (Devgen NV, priority 2005, published 2010).

What is called IC50 is the concentration that inhibits the measured activity by half.

Test [1] has as its target T1, PKC epsilon (Homo sapiens, UniProt Q02156).
T1 construct: purchased Invitrogen P2282
T1 sequence (Q02156 1-737): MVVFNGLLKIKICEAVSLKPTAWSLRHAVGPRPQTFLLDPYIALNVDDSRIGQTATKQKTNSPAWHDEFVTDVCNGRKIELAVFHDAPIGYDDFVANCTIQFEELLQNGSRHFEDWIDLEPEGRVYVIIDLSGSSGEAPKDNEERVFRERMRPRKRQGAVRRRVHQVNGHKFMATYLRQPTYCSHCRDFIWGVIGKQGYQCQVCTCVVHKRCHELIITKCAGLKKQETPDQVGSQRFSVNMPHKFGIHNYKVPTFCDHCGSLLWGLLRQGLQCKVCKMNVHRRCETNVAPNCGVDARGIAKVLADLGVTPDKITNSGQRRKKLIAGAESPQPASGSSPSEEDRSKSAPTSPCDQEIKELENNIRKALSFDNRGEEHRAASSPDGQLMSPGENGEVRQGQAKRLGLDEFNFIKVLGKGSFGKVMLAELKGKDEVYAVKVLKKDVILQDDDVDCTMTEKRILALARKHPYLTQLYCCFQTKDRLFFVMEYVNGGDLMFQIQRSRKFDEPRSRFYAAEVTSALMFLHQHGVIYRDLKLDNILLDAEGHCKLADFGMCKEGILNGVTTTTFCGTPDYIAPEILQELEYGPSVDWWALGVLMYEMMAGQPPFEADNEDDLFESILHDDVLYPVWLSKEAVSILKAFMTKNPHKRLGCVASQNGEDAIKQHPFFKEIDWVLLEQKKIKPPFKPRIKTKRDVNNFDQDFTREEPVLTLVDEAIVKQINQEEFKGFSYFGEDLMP
Description: Biochemical assay for PKC epsilon (fluorescence polarization, Protein Kinase C Assay Kit, Red). The conditions noted are these: read-out: IC50 μM PKCε. In short, it runs like this: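 PKC epsilon at 10 ng/ml final was preincubated 30 min at room temperature with compound in HEPES pH 7.4 with DTT and Triton X-100. ATP/protein substrate was then added in buffer with MgCl2 and CaCl2 for 80 min. The reaction was stopped with EDTA, phosphorylation was detected by fluorescence polarization with rhodamine tracer and anti-phosphoserine antibody, and IC50 values came from curve fits.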

Test [2] has as its target T2, human ROCKα/ROCKII mix (Homo sapiens, UniProt O75116).
T2 construct: purchased Upstate Biotechnology 14-451
Description: Biochemical assay for ROCK (fluorescence polarization, ROCK IMAP Kit).

[3] abbreviates: Table 2, compounds of Formula XIII.

Counter-ions that a name gives are not always drawn. Like-named read-outs stand apart in the source and are kept apart here. Bounds are passed on as bounds.

T2 sequence (O75116 11-552 limits assumed): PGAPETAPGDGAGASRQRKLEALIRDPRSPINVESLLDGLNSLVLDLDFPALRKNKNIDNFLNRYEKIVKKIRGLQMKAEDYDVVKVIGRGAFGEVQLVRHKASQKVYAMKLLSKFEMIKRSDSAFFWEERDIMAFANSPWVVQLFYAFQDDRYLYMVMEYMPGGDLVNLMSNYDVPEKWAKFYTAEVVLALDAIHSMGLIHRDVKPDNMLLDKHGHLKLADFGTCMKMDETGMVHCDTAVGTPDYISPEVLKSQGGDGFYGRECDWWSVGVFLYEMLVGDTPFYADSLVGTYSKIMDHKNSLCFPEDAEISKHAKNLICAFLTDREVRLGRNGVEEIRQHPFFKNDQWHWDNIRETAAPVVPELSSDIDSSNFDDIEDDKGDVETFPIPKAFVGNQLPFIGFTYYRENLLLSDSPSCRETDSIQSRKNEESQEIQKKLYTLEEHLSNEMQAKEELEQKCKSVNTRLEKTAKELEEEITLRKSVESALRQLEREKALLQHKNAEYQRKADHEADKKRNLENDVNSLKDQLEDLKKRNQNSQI

Turning to `N[C@@H](CC(=O)N[C@@H]1CCCc2ccccc21)c1ccc(C(=O)Nc2ccncc2)cc1` [Compound 374, 4-{(S)-1-Amino-2-[(R)-(1,2,3,4-tetrahydro-naphthalen-1-yl)carbamoyl]-ethyl}-N-pyridin-4-yl-benzamide dihydrochloric acid salt], the values for the IC50 in test [1] and in test [2] were 0.5 to 5 µM and 0.05 to 0.5 µM, respectively.
The corresponding values for `N[C@@H](CC(=O)N[C@H]1CCCc2ccccc21)c1ccc(C(=O)Nc2ccncc2)cc1` [Compound 375, 4{(S)-1-Amino-2-[(S)-(1,2,3,4-tetrahydro-naphthalen-1-yl)carbamoyl]-ethyl}-N-pyridin-4-yl-benzamide dihydrochloric acid salt] are 5 to 50 µM and 0.05 to 0.5 µM.
Regarding `NC(CNC(=O)C1(c2ccc(F)c(F)c2)CC1)c1ccc(C(=O)Nc2ccncc2)cc1` (centres unmarked) [Compound 377, 4-(1-Amino-2-{[1-(3,4-difluoro-phenyl)-cyclopropanecarbonyl]-amino}-ethyl)-N-pyridin-4-yl-benzamide], the results for the IC50 in test [1] (setting [3]) and in test [2] (setting [3]) were less than 0.05 µM and 0.05 to 0.5 µM, respectively.
Regarding `NC(CNC(=O)C1(c2ccc(F)c(F)c2)CCC1)c1ccc(C(=O)Nc2ccncc2)cc1` (centres unmarked) [Compound 378, 4-(1-Amino-2-{[1-(3,4-difluoro-phenyl)-cyclobutanecarbonyl]-amino}-ethyl)-N-pyridin-4-yl-benzamide], the IC50 in test [1] (setting [3]) was less than 0.05 µM; in test [2] (setting [3]), 0.05 to 0.5 µM.
In the same order, the values of `NC(CNC(=O)C1(c2ccc(F)c(F)c2)CCCC1)c1ccc(C(=O)Nc2ccncc2)cc1` (centres unmarked) [Compound 379, 4-(1-Amino-2-{[1-(3,4-difluoro-phenyl)-cyclopentanecarbonyl]-amino}-ethyl)-N-pyridin-4-yl-benzamide] are less than 0.05 µM and 0.05 to 0.5 µM.
Take `CC(C)(C(=O)NCC(N)c1ccc(C(=O)Nc2ccncc2)cc1)c1ccc(Cl)c(Cl)c1` (centres unmarked) [Compound 380, 4-{1-Amino-2-[2-(3,4-dichloro-phenyl)-2-methyl-propionylamino]-ethyl}-N-pyridin-4-yl-benzamide]: the half-inhibitory concentration (IC50) in test [1] (setting [3]) is less than 0.05 µM; in test [2] (setting [3]) it was 0.05 to 0.5 µM.
For the compound `NC(CNC(=O)C1(c2ccc(Cl)c(Cl)c2)CCC1)c1ccc(C(=O)Nc2ccncc2)cc1` (centres unmarked) [Compound 381, 4-(1-Amino-2-{[1-(3,4-dichloro-phenyl)-cyclobutanecarbonyl]-amino}-ethyl)-N-pyridin-4-yl-benzamide], the IC50 in test [1] (setting [3]) and in test [2] (setting [3]) was 0.05 to 0.5 µM in each case.
For the compound `CC(C)(C(=O)NCC(N)c1ccc(C(=O)Nc2ccncc2)cc1)c1ccc(F)c(Cl)c1` (centres unmarked) [Compound 382, 4-{1-Amino-2-[2-(3-chloro-4-fluoro-phenyl)-2-methyl-propionylamino]-ethyl}-N-pyridin-4-yl-benzamide], the figures for the IC50 in test [1] (setting [3]) and in test [2] (setting [3]) were less than 0.05 µM and 0.05 to 0.5 µM, respectively.
`CC(C)(C(=O)NCC(N)c1ccc(C(=O)Nc2ccncc2)cc1)c1ccc(F)cc1F` (centres unmarked) [Compound 384, 4-{1-Amino-2-[2-(2,4-difluoro-phenyl)-2-methyl-propionylamino]-ethyl}-N-pyridin-4-yl-benzamide]: the 50% inhibitory concentration (IC50) in test [1] (setting [3]) was less than 0.05 µM; in test [2] (setting [3]) it was 0.05 to 0.5 µM.
In the same order, the values of `NC(CNC(=O)C1(c2ccc(F)cc2F)CC1)c1ccc(C(=O)Nc2ccncc2)cc1` (centres unmarked) [Compound 385, 4-(1-Amino-2-{[1-(2,4-difluoro-phenyl)-cyclopropanecarbonyl]-amino}-ethyl)-N-pyridin-4-yl-benzamide] are less than 0.05 µM and 0.05 to 0.5 µM.
In the same order, the values of `CC(C)(C(=O)NCC(N)c1ccc(C(=O)Nc2ccncc2)cc1)c1ccc(F)cc1Cl` (centres unmarked) [Compound 386, 4-{1-Amino-2-[2-(2-chloro-4-fluoro-phenyl)-2-methyl-propionylamino]-ethyl}-N-pyridin-4-yl-benzamide] are less than 0.05 µM and 0.05 to 0.5 µM.
`NC(CNC(=O)C1(c2ccc(F)cc2Cl)CC1)c1ccc(C(=O)Nc2ccncc2)cc1` (centres unmarked) [Compound 387, 4-(1-Amino-2-{[1-(2-chloro-4-fluoro-phenyl)-cyclopropanecarbonyl]-amino}-ethyl)-N-pyridin-4-yl-benzamide]: the IC50 in test [1] (setting [3]) is less than 0.05 µM; in test [2] (setting [3]), 0.05 to 0.5 µM.
On to `CC(C)(C(=O)NCC(N)c1ccc(C(=O)Nc2ccncc2)cc1)c1ccc(Cl)cc1F` (centres unmarked) [Compound 388, 4-{1-Amino-2-[2-(4-chloro-2-fluoro-phenyl)-2-methyl-propionylamino]-ethyl}-N-pyridin-4-yl-benzamide], for which the results for the 50% inhibitory concentration (IC50) in test [1] (setting [3]) and in test [2] (setting [3]) were less than 0.05 µM and 0.05 to 0.5 µM, respectively.
In the same order, the values of `NC(CNC(=O)C1(c2ccc(Cl)cc2F)CC1)c1ccc(C(=O)Nc2ccncc2)cc1` (centres unmarked) [Compound 389, 4-(1-Amino-2-{[1-(4-chloro-2-fluoro-phenyl)-cyclopropanecarbonyl]-amino}-ethyl)-N-pyridin-4-yl-benzamide] are less than 0.05 µM and 0.05 to 0.5 µM.
For `NC(CNC(=O)C1CCOc2ccccc21)c1ccc(C(=O)Nc2ccncc2)cc1` (centres unmarked) [Compound 390, Chroman-4-carboxylic acid {2-amino-2-[4-(pyridin-4-ylcarbamoyl)-phenyl]-ethyl}-amide], the IC50 in test [1] (setting [3]) and in test [2] (setting [3]) was 0.05 to 0.5 µM throughout.
As to `NC(CNC(=O)C1CCSc2ccccc21)c1ccc(C(=O)Nc2ccncc2)cc1` (centres unmarked) [Compound 391, Thiochroman-4-carboxylic acid {2-amino-2-[4-(pyridin-4-ylcarbamoyl)-phenyl]-ethyl}-amide], the concentration for half-maximal inhibition (IC50) in test [1] (setting [3]) and in test [2] (setting [3]) was 0.05 to 0.5 µM throughout.
`NC(CNC(=O)C1CCOc2ccc(F)cc21)c1ccc(C(=O)Nc2ccncc2)cc1` (centres unmarked) [Compound 393, 6-Fluoro-chroman-4-carboxylic acid {2-amino-2-[4-(pyridin-4-ylcarbamoyl)-phenyl]-ethyl}-amide]: the IC50 in test [1] (setting [3]) and in test [2] (setting [3]) was 0.05 to 0.5 µM throughout.
For `N[C@H](CNC(=O)C1(c2ccc(Cl)cc2)CC1)c1ccc(C(=O)Nc2ccncc2)cc1` [Compound 397, 4-((S)-1-Amino-2-{[1-(4-chloro-phenyl)-cyclopropanecarbonyl]-amino}-ethyl)-N-pyridin-4-yl-benzamide dihydrochloric acid salt], the half-maximal inhibitory concentration (IC50) in test [1] is less than 0.05 µM; in test [2], 0.05 to 0.5 µM.
The corresponding values for `N[C@@H](CNC(=O)C1(c2ccc(Cl)cc2)CC1)c1ccc(C(=O)Nc2ccncc2)cc1` [Compound 398, 4-((R)-1-Amino-2-{[1-(4-chloro-phenyl)-cyclopropanecarbonyl]-amino}-ethyl)-N-pyridin-4-yl-benzamide dihydrochloric acid salt] are 0.5 to 5 µM and 0.5 to 5 µM.
Take `CC(C)(C(=O)NC[C@H](N)c1ccc(C(=O)Nc2ccncc2)cc1)c1ccc(Cl)cc1` [Compound 400, 4-{(R)-1-Amino-2-[2-(4-chloro-phenyl)-2-methyl-propionylamino]-ethyl}-N-pyridin-4-yl-benzamide]: the concentration for half-maximal inhibition (IC50) in test [1] and in test [2] was 0.5 to 5 µM in each case.
In the case of `N[C@H](CC(=O)NCc1ccc(F)cc1)c1ccc(C(=O)Nc2ccncc2)cc1` [Compound 401, 4-[(R)-1-Amino-2-(4-fluoro-benzylcarbamoyl)-ethyl]-N-pyridin-4-yl-benzamide dihydrochloric acid salt], the figures for the IC50 in test [1] and in test [2] were less than 0.05 µM and 0.05 to 0.5 µM, respectively.
The corresponding values for `N[C@@H](CC(=O)NCc1ccc(F)cc1)c1ccc(C(=O)Nc2ccncc2)cc1` [Compound 402, 4-[(S)-1-Amino-2-(4-fluoro-benzylcarbamoyl)-ethyl]-N-pyridin-4-yl-benzamide dihydrochloric acid salt] are 0.05 to 0.5 µM and 0.05 to 0.5 µM.
In the case of `N[C@H](CC(=O)N[C@@H]1COc2ccccc21)c1ccc(C(=O)Nc2ccncc2)cc1` [Compound 405, 4-{(R)-1-Amino-2-[(S)-(2,3-dihydro-benzofuran-3-yl)carbamoyl]-ethyl}-N-pyridin-4-yl-benzamide], the IC50 in test [1] and in test [2] was less than 0.05 µM throughout.
Regarding `N[C@H](CC(=O)N[C@H]1COc2ccccc21)c1ccc(C(=O)Nc2ccncc2)cc1` [Compound 406, 4-{(R)-1-Amino-2-[(R)-(2,3-dihydro-benzofuran-3-yl)carbamoyl]-ethyl}-N-pyridin-4-yl-benzamide], the IC50 in test [1] and in test [2] was 0.05 to 0.5 µM throughout.
As for `N[C@H](CNC(=O)C1(c2ccc(F)cc2)CCCC1)c1ccc(C(=O)Nc2ccncc2)cc1` [Compound 417, 4-((S)-1-Amino-2-{[1-(4-fluoro-phenyl)-cyclopentanecarbonyl]-amino}-ethyl)-N-pyridin-4-yl-benzamide dihydrochloric acid salt], the IC50 in test [1] was less than 0.05 µM; in test [2], 0.05 to 0.5 µM.
